Measurements: US10226453B2, “3-(1H-indol-2-yl)-1H-pyrazolo[4,3-B]pyridines and therapeutic uses thereof” (Samumed, LLC, priority 2015, dated 2019)

Tests used:
Assay type in all cases: cell-based
[1] = test system: Wnt activity (Sp5-Luc reporter, SW480 colon carcinoma cells); test: Wnt activity screening assay: Sp5-Luc reporter gene in SW480 colon carcinoma cells; conditions: Homo sapiens, overnight incubation, 10-point curve from 10 μM
From the text: The screening assay for Wnt activity is described as follows. Reporter cell lines can be generated by stably transducing cancer cell lines (e.g., colon cancer) or primary cells (e.g., IEC-6 intestinal cells) with a lentiviral construct that includes a Wnt-responsive promoter driving expression of the firefly luciferase gene.
SW480 colon carcinoma cells were transduced with a lentiviral vector expressing luciferase with a human Sp5 promoter consisting of a sequence of eight TCF/LEF binding sites. SW480 cells stably expressing the Sp5-Luc reporter gene and a hygromycin resistance gene were selected by treatment with 150 μg/mL of hygromycin for 7 days. These stably transduced SW480 cells were expanded in cell culture and used for all further screening activities. Each compound was dissolved in DMSO as a 10 mM stock and used to prepare compound source plates. Serial dilution (1:3, 10-point dose-response curves starting from 10 μM) and compound transfer was performed using the ECHO 550 (Labcyte, Sunnyvale, Calif.) into 384-well white solid bottom assay plates (Greiner Bio-One) with appropriate DMSO backfill for a final DMSO concentration of 0.1%. For Sp5-Luc reporter gene assays, the cells were plated at 4,000 cells/well in 384-well plates with medium containing 1% fetal bovine serum and incubated overnight at 37° C. and 5% CO2. Following incubation, 20 μl of BrightGlo luminescence reagent (Promega) was added to each well of the 384-well assay plates. The plates were placed on an orbital shaker for 2 min and then luminescence was quantified using the Envision (Perkin Elmer) plate reader. Readings were normalized to DMSO only treated cells, and normalized activities were utilized for EC50 calculations using the dose-response log (inhibitor) vs. response-variable slope (four parameters) nonlinear regression feature available in GraphPad Prism 5.0 (or Dotmatics). For EC50 of >10 μM, the percent inhibition at 10 μM is provided.

[2] = test system: SW480 colon cancer cells; test: Cell viability assay (CellTiter-Blue), SW480 colon cancer cells; conditions: Homo sapiens, 96 h, four days, CellTiter-Blue
Description: Representative compounds were screened using the following assay procedure to assess the effect on cell viability as described below.
Each compound was dissolved in DMSO as a 10 mM stock and used to prepare compound source plates. Serial dilution (1:3, 8-point dose-response curves from 10 μM to 0.0045 μM) and compound transfer was performed using the ECHO 550 (Labcyte, Sunnyvale, Calif.) into 96-well clear bottom, black-walled plates (Corning—Costar).
Approximately 2×10^3 SW480 colon cancer cells were seeded into each well and allowed to incubate in the presence or absence of compound for four days at 37° C./5% CO2. Eight replicates of DMSO-treated cells served as controls and cells treated with compound were performed in duplicate.
After incubation, 20 μL of CellTiter-Blue (Promega) was added to each well allowed to incubate for approximately 3 hours. This reagent was a buffered solution which contains resazurin, metabolically active cells were able to reduce rezarurin (blue) into resorufin (pink) which was highly fluorescent. This measured fluorescence was used as a readout for cell viability.
After incubation, the plates were read at Ex 560 nm Em 590 nm (Cytation 3, BioTek). Dose-response curves were generated and EC50 concentration values were calculated using non-linear regression curve fit in the GraphPad Prism (San Diego, Calif.) or Dotmatics' Studies Software (Bishops Stortford, UK). For EC50 of >10 μM, the percent inhibition at 10 μM is provided.

[3] = test system: primary human fibroblasts derived from IPF patients (LL29 cells) treated with TGF-β1; test: Inhibition of the fibrotic process: αSMA staining in TGF-β1 treated primary human fibroblasts from IPF patients (LL29 cells); conditions: Fibroblast, 96 h, TGF-β1 20 ng/mL, 4 days, % αSMA positive cells
From the text: Representative compounds were screened using primary human fibroblasts (derived from IPF patients) treated with TGF-β1 to determine their ability to inhibit the fibrotic process.
Primary human fibroblasts derived from IPF patients (LL29 cells) [^1Xiaoqiu Liu, et. al., “Fibrotic Lung Fibroblasts Show Blunted Inhibition by cAMP Due to Deficient cAMP Response Element-Binding Protein Phosphorylation”, Journal of Pharmacology and Experimental Therapeutics (2005), 315(2), 678-687; ^2Watts, K. L., et. al., “RhoA signaling modulates cyclin D1 expression in human lung fibroblasts; implications for idiopathic pulmonary fibrosis”, Respiratory Research (2006), 7(1), 88] were obtained from American Type Culture Collection (ATCC) and expanded in F12 medium supplemented with 15% Fetal Bovine Serum and Penicillin/Streptomycin.
Each compound was dissolved in DMSO as a 10 mM stock and used to prepare compound source plates. Serial dilution (1:2, 11-point dose-response curves from 10 μM to 1.87 nM) and compound transfer was performed using the ECHO 550 (Labcyte, Sunnyvale, Calif.) into 384-well clear bottom assay plates (Greiner Bio-One) with appropriate DMSO backfill for a final DMSO concentration of 0.1%. LL29 cells are plated at 1,500 cells/well in 80 μL/well F12 medium supplemented with 1% Fetal Bovine Serum. One hour after addition of the cells, TGF-β1 (Peprotech; 20 ng/mL) was added to the plates to induce fibrosis (ref. 1 and 2 above). Wells treated with TGF-β1 and containing DMSO were used as controls. Cells were incubated at 37° C. and 5% CO2 for 4 days. Following incubation for 4 days, SYTOX green nucleic acid stain (Life Technologies [Thermo Fisher Scientific]) was added to the wells at a final concentration of 1 μM and incubated at room temperature for 30 min. Cells were then fixed using 4% formaldehyde (Electron Microscopy Sciences), washed 3 times with PBS followed by blocking and permeabilization using 3% Bovine Serum Albumin (BSA; Sigma) and 0.3% Triton X-100 (Sigma) in PBS. Cells were then stained with antibody specific to α-smooth muscle actin (αSMA; Abcam) (ref. 1 and 2 above) in 3% Bovine Serum Albumin (BSA; Sigma) and 0.3% Triton X-100 (Sigma) in PBS, and incubated overnight at 4° C. Cells were then washed 3 times with PBS, followed by incubation with Alexa Flor-647 conjugated secondary antibody (Life Technologies [Thermo Fisher Scientific]) and DAPI at room temperature for 1 hour. Cells were then washed 3 times with PBS and plates were sealed for imaging. αSMA staining was imaged by excitation at 630 nm and emission at 665 nm and quantified using the Compartmental Analysis program on the CellInsight CX5 (Thermo Scientific). Dead or apoptotic cells were excluded from analysis based on positive SYTOX green staining. % of total cells positive for αSMA were counted in each well and normalized to the average of 11 wells treated with TGF-β1 on the same plate using Dotmatics' Studies Software. The normalized averages (fold change over untreated) of 3 replicate wells for each compound concentration were used to create dose-responses curves and EC50 values were calculated using non-linear regression curve fit in the Dotmatics' Studies Software. For EC50 of >10 μM, the percent inhibition at 10 μM is provided.

[4] = test system: IL-6 (THP-1 cells); test: IL-6 inhibition in LPS-stimulated THP-1 human monocyte cells (HTRF); conditions: LPS 500 ng/mL, 22 hours, IL6 HTRF
Description: Human monocyte cell line (THP-1 cells; Catalog # TIB-202, ATCC, Manassas, Va.) were cultured in Roswell Park Memorial Institute (RPMI) 1640 Medium (Catalog #21870-100, Buffalo, N.Y.) with 1% L-glutamine, 1% HEPES, 1% Sodium Pyruvate, 2% Sodium Bicarbonate supplemented with 100 units/mL penicillin, 50 μg/mL streptomycin, 2-mercaptoethanol (0.05 mM) [basal medium] and 10% fetal bovine serum (Catalog #16140089, Life Technologies, Carlsbad, Calif.) at 37° C. and 5% CO2.
THP-1 cells were cultured in basal media with 1% FBS for 24 hours before the start of the assay. Each compound was dissolved in DMSO as a 10 mM stock and used to prepare compound source plates. Serial dilution (1:3, 10-point dose-response curves starting from 10 μM) and compound transfer was performed using the ECHO 550 (Labcyte, Sunnyvale, Calif.) into 384-well white low volume assay plates (Greiner Bio-One) with appropriate DMSO backfill for a final DMSO concentration of 0.1%. THP-1 cells were plated at 5000 cells/well in the 384-well plates and incubated at 37° C. for 2 h. 500 ng/mL of LPS was added after 2 hours and cells were incubated for another 22 hours at 37° C. Plates were spun in a centrifuge for 1 minute at […] and a mixture of anti-IL6 XL665, and anti-IL6 Cryptate diluted in reconstitution buffer (Cisbio Inc.) was added to each well. Following incubation for 3 hrs at room temperature, Homogeneous Time-Resolved Fluorescence (HTRF) was measured using the Envision (Perkin Elmer) at 665 nm and […]. The ratio of fluorescence at 665 nm to 620 nm was used as a readout for IL6 quantification. All samples were processed in duplicate. Readings were normalized to DMSO treated cells and normalized activities were utilized for EC50 calculations using the dose-response log (inhibitor) vs. response-variable slope (four parameters) nonlinear regression feature available in GraphPad Prism 5.0 (or Dotmatics). For EC50 of >10 μM, the percent inhibition at 10 μM is provided.

Compound | EC50 [1] [nM] | EC50 [2] [µM] | EC50 [3] [nM] | EC50 [4] [nM]
Fc1cccc(-c2cccc3[nH]c(-c4n[nH]c5ccc(-c6cccnc6)nc45)cc23)c1 [Compound 4, 3-(4-(3-Fluorophenyl)-1H-indol-2-yl)-5-(pyridin-3-yl)-1H-pyrazolo[4,3-b] pyridine] | 209 | 9.66 | 974 | 439
O=C(Nc1cncc(-c2ccc3[nH]nc(-c4cc5c(-c6cccc(F)c6)cccc5[nH]4)c3n2)c1)C1CCCCC1 [Compound 23, N-(5-(3-(4-(3-Fluorophenyl)-1H-indol-2-yl)-1H-pyrazolo[4,3-b]pyridin-5-yl)pyridin-3-yl)cyclohexanecarboxamide] | 1630 | 6.57 | 1280 | 1010
Fc1cccc(-c2cccc3[nH]c(-c4n[nH]c5ccc(-c6cncc(CN7CCC(F)(F)C7)c6)nc45)cc23)c1 [Compound 26, 5-(5-((3,3-Difluoropyrrolidin-1-yl)methyl)pyridin-3-yl)-3-(4-(3-fluorophenyl)-1H-indol-2-yl)-1H-pyrazolo[4,3-b]pyridine] | 981 | 3.11 | 409 | 530
Cc1ccncc1-c1ccc2[nH]nc(-c3cc4c(-c5ccc(F)cc5)cccc4[nH]3)c2n1 [Compound 33, 3-(4-(4-Fluorophenyl)-1H-indol-2-yl)-5-(4-methylpyridin-3-yl)-1H-pyrazolo [4,3-b]pyridine] | 1020 | 6.74 | 1230 | 388
CC(C)CC(=O)Nc1cncc(-c2ccc3[nH]nc(-c4cc5c(-c6ccccc6F)cccc5[nH]4)c3n2)c1 [Compound 58, N-(5-(3-(4-(2-Fluorophenyl)-1H-indol-2-yl)-1H-pyrazolo[4,3-b]pyridin-5-yl)pyridin-3-yl)-3-methylbutanamide] | 254 | 1.21 | 628 | 72
O=C(Nc1cncc(-c2ccc3[nH]nc(-c4cc5c(-c6ccccc6F)cccc5[nH]4)c3n2)c1)C1CC1 [Compound 76, N-(5-(3-(4-(2-Fluorophenyl)-1H-indol-2-yl)-1H-pyrazolo[4,3-b]pyridin-5-yl)pyridin-3-yl)cyclopropanecarboxamide] | 164 | 0.895 | 502 | 51
CC(C)Nc1cncc(-c2ccc3[nH]nc(-c4cc5c(-c6cccnc6)cccc5[nH]4)c3n2)c1 [Compound 96, N-Isopropyl-5-(3-(4-(pyridin-3-yl)-1H-indol-2-yl)-1H-pyrazolo[4,3-b]pyridin-5-yl)pyridin-3-amine] | 107 | 0.604 | 214 | 75
c1cncc(-c2ccc3[nH]nc(-c4cc5c(N6CCCCC6)cccc5[nH]4)c3n2)c1 [Compound 172, 3-(4-(Piperidin-1-yl)-1H-indol-2-yl)-5-(pyridin-3-yl)-1H-pyrazolo[4,3-b] pyridine] | 253 | 2.15 | 295 | 126
CN(C)Cc1cncc(-c2ccc3[nH]nc(-c4cc5c(N6CCCCC6)cccc5[nH]4)c3n2)c1 [Compound 181, N,N-Dimethyl-1-(5-(3-(4-(piperidin-1-yl)-1H-indol-2-yl)-1H-pyrazolo[4,3-b]pyridin-5-yl)pyridin-3-yl)methanamine] | 899 | 3.15 | 870 | 1520
c1cc(N2CCCCC2)c2cc(-c3n[nH]c4ccc(-c5cncnc5)nc34)[nH]c2c1 [Compound 195, 3-(4-(Piperidin-1-yl)-1H-indol-2-yl)-5-(pyrimidin-5-yl)-1H-pyrazolo[4,3-b] pyridine] | 1180 | 5.59 | 1280 | 31
CC(C)CC(=O)Nc1cncc(-c2ccc3[nH]nc(-c4cc5c(N6CCN(C)CC6)cccc5[nH]4)c3n2)c1 [Compound 226, 3-Methyl-N-(5-(3-(4-(4-methylpiperazin-1-yl)-1H-indol-2-yl)-1H-pyrazolo [4,3-b]pyridin-5-yl)pyridin-3-yl)butanamide] | 2140 | 1.93 | 2550 | 359
